Experiments:
[1] = test system: C57BL6 mice; test: CFA inflammatory pain model, Blackbox behavioral analysis of hind paw usage; format: in vivo; conditions: for reversal of CFA-induced mechanical hypersensitivity: beginning at 24 hours after intraplantar administration
Source text: To evaluate the effect of different treatments on voluntary pain-related behaviors in mice, we used the Blackbox behavioral analysis system, as previously described (Zhang, et al., PAIN, 2022 Dec. 1; 163 (12): 2326-2336, incorporated herein by reference in its entirety).
• Male and female C57BL6 mice (n=5 per group) • Complete Freund's Adjuvant (CFA, Sigma) • Saline • PBS • DMSO • Compound 1 • Compound 2 • Syringes (for injections) • Hargreaves apparatus (for thermal pain testing) • Blackbox behavioral analysis setup
• Divide mice into groups (n=10 per group). • Inject 20 μL of CFA or saline into the right hind paw of each mouse.
• 24 hours after CFA injection, randomly assign mice to the following groups: • Control Group: PBS+PBS • CFA+PBS Group • CFA+DMSO Group • CFA+Compound 1 Group • CFA+Compound 2 Group
• Inject the designated treatment (PBS (20 μL), DMSO (20 μL), Compound 1 (1 μM in 20 μL PBS), or Compound 2 (1 μM in 20 μL DMSO)) into the plantar right paw of each mouse according to their assigned group.
• Perform Blackbox behavioral analysis and Hargreaves test at the following time points after drug injection: 1 hour, 3 hours, 6 hours, and 24 hours.
• Blackbox Behavioral Analysis: • Place each mouse in the Blackbox apparatus for 10 minutes. • Record and analyze behaviors indicative of pain or discomfort (e.g., grooming, paw licking, flinching).
• Record the data for each mouse at each time point. • Compare the results across different groups to assess the effects of the treatments on pain response.
This protocol outlines the steps to assess the impact of different treatments on pain response in mice using Blackbox behavioral analysis. Mice are injected with CFA or saline, followed by treatment with Compound 1 or Compound 2, and negative controls using vehicle (PBS or DMSO) alone.
• 1. Control Group: PBS+PBS • 2. CFA+PBS Group • 3. CFA+DMSO Group • 4. CFA+Compound 1 Group • 5. CFA+Compound 2 Group
• 1 hour after drug injection • 3 hours after drug injection • 6 hours after drug injection • 24 hours after drug injection Precise timing and consistent handling throughout the experiment were utilized to maintain the validity of the results.
Effect of Compound 1. Eight-week-old male and female mice (n=5 mice/group) were injected with CFA (20 μL; intradermal) or saline (20 μL) into the right hind paw. Left (contralateral) hindpaw luminance (FIG. 3A) and ratio of time (FIG. 3B), as well as right hindpaw luminance (FIG. 4A) and ratio of time (FIG. 4B), were assessed as surrogates for mechanical pain hypersensitivity at 1-, 3-, 6-, and 24-hours post-treatment.
Data were analyzed using a two-way ANOVA to assess the effects of CFA injection and subsequent treatments on hindpaw usage and thermal pain hypersensitivity. Post-hoc comparisons were performed using Dunnett's test to identify significant differences between treatment groups.
Effect of Compound 2. Eight-week-old male and female mice (n=5 mice/group) were injected with CFA (20 μL; intradermal) or saline (20 μL) into the right hind paw. Left (contralateral) hind paw luminance (FIG. 5A) and ratio of time (FIG. 5B), as well as right hindpaw luminance (FIG. 6A) and ratio of time (FIG. 6B), were assessed as a readout of mechanical pain hypersensitivity at 1-, 3-, 6-, and 24-hours post-treatment.
Data were analyzed using a two-way ANOVA to assess the effects of CFA injection and subsequent treatments on hindpaw usage (mechanical hypersensitivity). Post-hoc comparisons were performed using Dunnett's test to identify significant differences between treatment groups.

[2] = test system: cultured dorsal root ganglion (DRG) neurons; test: Calcium flux in cultured DRG neurons (Fura-2AM calcium imaging); format: cell-based, mice
Procedure: Methods: Assessment of Compound 1 Induced Calcium Flux in Cultured DRG Neurons To evaluate the effect of Compound 1 and Compound 2 on calcium flux in cultured dorsal root ganglion (DRG) neurons isolated from 8-week-old male mice, the following protocols were performed:
• 8-week-old C57BL6 male mice • Fura-2AM (calcium indicator dye) • Compound 1 (at concentrations of 1 μM and 10 μM) • Compound 2 (at concentrations of 1 μM and 10 μM) • ATP (P2X3R agonist, 10 μM) • Capsaicin (TRPV1 ligand, 10 μM) • KCl (50 mM) • Calcium imaging setup (calcium microscope)
• Euthanize 8-week-old male mice according to ethical guidelines. • Harvest the dorsal root ganglia (DRG) from the mice.
• Culture the DRG neurons in appropriate growth media for 24 hours. 3. […]
• Measure and record the average calcium flux (A). • Determine the percentage of responding neurons, identifying responding neurons as those with an f340/f380 fluorescence ratio >10% (B).
Eight-week-old C57BL6 male mice were euthanized, DRG harvested, and neurons cultured for 24 hours. The neurons were then loaded with Fura-2AM, a calcium-responsive dye, and single-neuron calcium flux was recorded by calcium microscopy. […] Average calcium flux (FIG. 1A) and the percentage (FIG. 1B) of responding neurons (identified as f340/f380>10% fluorescence) are shown. […]

[3] = Compound 1, 1 μM in 20 μL PBS, plantar right paw, 24 hours after CFA, 1, 3, 6, 24 hours post-treatment

Row | SMILES | CFA-induced durable reduction of right paw usage [1, 3] | left (contralateral) paw usage after CFA in the right paw, compared to control mice [1, 3] | reversal of CFA-induced mechanical hypersensitivity [1] | calcium flux / activation of DRG neurons (interpretation) [2] | left (contralateral) paw usage after CFA in the right paw, compared to control mice ([1]; Compound 2, 1 μM in 20 μL DMSO, plantar right paw, 24 hours after CFA, 1, 3, 6, 24 hours post-treatment) | CFA-induced durable reduction of right (injured) paw usage ([1]; Compound 2, 1 μM in 20 μL DMSO, plantar right paw, effect beginning 24 hours after compound administration)
1 | CCN(CC)C(=O)[C@@H]1C=C2c3cccc4[nH]cc(c34)C[C@H]2[N+](C)(CC)C1 (stereo partly drawn) [Compound 1, (6aR,9R)-9-(diethylcarbamoyl)-7-ethyl-7-methyl-4,6,6a,7,8,9-hexahydroindolo[4,3-fg]quinolin-7-ium Iodide] | partly reduced | did not change | partial reversal | produced calcium flux |  | 
2 | CCCCCC[N+]1(C)C[C@H](C(=O)N(CC)CC)C=C2c3cccc4[nH]cc(c34)C[C@H]21 (stereo partly drawn) [Compound 2, (6aR,9R)-9-(diethylcarbamoyl)-7-hexyl-7-methyl-4,6,6a, 7,8,9-hexahydroindolo[4,3-fg]quinolin-7-ium Iodide] |  |  | partial reversal | did not produce calcium flux | did not change | partly reduced

Source: US20260146039A1, “NEUR[…] THE TREATMENT OF PAIN, ITCH AND NERVE INJURY” (Cacti, Inc., priority 2023, published 2026)
